Laboratory results published in US5523421A (Pacific Corporation, priority 1993, dated 1996).
pIC50: −log10 of the molar value.

Legend:
tyrosinase [1] = experiment: Tyrosinase-inhibiting activity; assay type: biochemical, mushroom; conditions: for pIC50: mushroom tyrosinase, tyrosine substrate, pH 6.8, 37° C., 10 minutes, absorbance at 475 nm
Procedure: As an enzyme, the tyrosinase, which was extracted from mushroom and produced by SIGMA was purchased. Tyrosine, a substrate was dissolved into distilled water to a concentration of 0.3 mg/ml and each 1.0 ml of the solution was placed into a test tube. […] Ethanol and water were used to dilute the test compounds. As a control, 0.9 ml of 1:1 mixture of ethanol and water was used. […] The test tube was quickly cooled in an ice water bath to stop the reaction, and the absorbance was measured at 475 nm. […] From the inhibitions(%) of tyrosinase by a series of dilutions of test compounds, IC50, i.e., a concentration of test compound which inhibit the tyrosinase by 50% was calculated for each test compound.

[2] = DPPH (diphenylpicrylhydrazyl) radical-scavenging test; conditions: 100 μM DPPH in ethanol, 37° C., 30 minutes, 515 nm
Procedure: Harmful radicals-scavenging activity of the compounds of Examples 1 through 6 were compared with those of conventional anti-oxidants by using DPPH(diphenylpicrylhydrazyl) radical-scavenging test as follows:
DPPH was dissolved into ethanol to a concentration of 100 μM. A series of dilutions of compounds of Examples 1 through 6, vitamin C, vitamin E or hydroquinone were prepared.
Ethanol and water were used to dilute the test compounds. As a control, 1:1 mixture of ethanol and water was used. The series of dilutions of each test compound were mixed with 1,900 μl of DPPH solution and the dilution solvent was added to 2.0 ml. The resulting mixture was reacted in a 37° C. incubator for 30 minutes. The absorbance was measured at 515 nm. The radical-scavenging activities of the compounds of Examples 1 through 6 and conventional anti-oxidants were calculated by employing the following equation: [formula]
From the radical scavenging activity(%) by a series of dilutions of test compounds, IC50, i.e., a concentration of test compound which scavenge the radical, DPPH by 50% was calculated for each test compound.

human skin = experiment: human body patch test (skin safety); assay type: in vivo; conditions: for number of positive subject/the number of total subjects, 48 hours later / number of positive subject/the number of total subjects, 96 hours later: 0.2 wt % in cream, 20 μl finn chamber on brachium; for safety to human skin (in words): patch test conclusion
Procedure: In order to examine the safety of the compounds of Examples 1 through 6, the human body patch test was carried out as follows:
The brachium of thirty(30) healthy volunteers (15 females and 15 males) was thoroughly washed with 70% ethanol and applied with a finn chamber containing 20 μl of a conventional creamy preparation incorporating 0.2 wt % of one of the compound of Examples 1 to 6. The finn chamber was thoroughly bonded to the brachium using an adhesive tape. 48 hours later, the tape and chamber were removed, and the adherent site of the arm was wiped with a gauze to remove the remaining preparation and observed for redness(erythma), swelling, and papuol. 48 hours later, the site was examined again.
The results are shown in terms of the number of positive subject/the number of total subjects.

tyrosinase [3] = conditions: background, known activity; cited from earlier work

| Molecule | pIC50 (tyrosinase [1]) | pIC50 [2] | number of positive subject/the number of total subjects, 48 hours later (human skin) | number of positive subject/the number of total subjects, 96 hours later (human skin) | safety to human skin (in words) (human skin) | skin response after 96 hours (in words) (human skin; preparation with 0.2 wt % of compound, 96 hours) | tyrosinase-inhibiting activity (in words) (tyrosinase [1]) | tyrosinase inhibition (in words, prior art) (tyrosinase [3]) |
| --- | --- | --- | --- | --- | --- | --- | --- | --- |
| O=C(OCc1cc(=O)c(O)co1)c1ccc(O)cc1 [Example 1, 2-(4-hydroxybenzoyl)oxymethyl-5-hydroxy-4H-pyran-4-one] | 5.00 | 2.72 | 0/30 | 0/30 | safe to the human skin |  |  |  |
| O=C(OCc1cc(=O)c(O)co1)c1ccccc1O [Example 2, 2-(2-hydroxybenzoyl)oxymethyl-5-hydroxy-4H-pyran-4-one] | 4.82 | 2.65 | 2/30 | 0/30 | safe to the human skin |  |  |  |
| O=C(OCc1cc(=O)c(O)co1)c1cccc(O)c1 [Example 3, 2-(3-hydroxybenzoyl)oxymethyl-5-hydroxy-4H-pyran-4-one] | 4.82 | 2.69 | 1/30 | 1/30 | considered to be safe | only one(1) among 30 subjects show a weak positive response |  |  |
| O=C(OCc1cc(=O)c(O)co1)c1ccc(O)c(O)c1 [Example 4, 2-(3,4-dihydroxybenzoyl)oxymethyl-5-hydroxy-4H-pyran-4-one] | 5.40 | 4.94 | 1/30 | 0/30 | safe to the human skin |  | strongest tyrosinase-inhibiting activity |  |
| O=C(OCc1cc(=O)c(O)co1)c1cccc(O)c1O [Example 5, 2-(2,3-dihydroxybenzoyl)oxymethyl-5-hydroxy-4H-pyran-4-one] | 4.85 | 4.95 | 1/30 | 0/30 | safe to the human skin |  |  |  |
| O=C(OCc1cc(=O)c(O)co1)c1ccc(O)cc1O [Example 6, 2-(2,4-dihydroxybenzoyl)oxymethyl-5-hydroxy-4H-pyran-4-one] | 5.22 | 4.82 | 0/30 | 0/30 | safe to the human skin |  | strongest tyrosinase-inhibiting activity |  |
| Oc1ccc(O)cc1 [Hydroquinone, reference compound] |  | 4.60 |  |  |  |  |  |  |
| O=c1cc(CO)occ1O [Kojic acid] |  |  |  |  |  |  |  | strongly inhibiting the action of tyrosinase |
| O=C1O[C@H]([C@@H](O)CO)C(O)=C1O [Vitamin C, reference compound] |  | 4.53 |  |  |  |  |  |  |
| tocopherol [Vitamin E, reference compound] |  | 4.46 |  |  |  |  |  |  |
